Patent US20250108038A1 (priority 2023, published 2025)
Like-named read-outs stand apart in the source and are kept apart here.

Experiments:
OAT1 = target: T1, OAT1 (Homo sapiens, UniProt Q4U2R8); experiment: Uptake transporter inhibition assay, OAT1 (tenofovir)
T1 sequence (Q4U2R8 1-563): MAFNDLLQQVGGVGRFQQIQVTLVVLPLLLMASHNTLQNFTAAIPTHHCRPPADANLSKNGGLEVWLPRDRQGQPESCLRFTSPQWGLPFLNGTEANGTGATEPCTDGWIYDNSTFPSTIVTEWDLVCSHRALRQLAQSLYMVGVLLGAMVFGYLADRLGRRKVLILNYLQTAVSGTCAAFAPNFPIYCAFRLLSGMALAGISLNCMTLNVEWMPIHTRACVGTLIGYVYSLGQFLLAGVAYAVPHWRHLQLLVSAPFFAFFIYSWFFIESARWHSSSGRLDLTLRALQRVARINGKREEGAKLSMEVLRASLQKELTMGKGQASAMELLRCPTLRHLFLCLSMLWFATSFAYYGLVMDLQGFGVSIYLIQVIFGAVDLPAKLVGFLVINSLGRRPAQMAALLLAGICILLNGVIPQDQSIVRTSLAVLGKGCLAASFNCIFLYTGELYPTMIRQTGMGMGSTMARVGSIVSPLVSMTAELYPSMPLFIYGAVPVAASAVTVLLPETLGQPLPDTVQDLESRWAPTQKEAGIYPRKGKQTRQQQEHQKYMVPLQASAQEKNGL
Experimental: (§1) Uptake experiments were performed using HEK293 cells stably expressing the respective uptake transporters. The assays were conducted according to the actual SOLVO uptake transporter assay protocols (PR-ASY-UPT-General Protocol for Uptake Transporter Inhibition Assays).
(§2) Cells were cultured at 37° C. in a humidified atmosphere containing 5% CO2 and were plated onto standard 96-well tissue culture plates.
(§3) Before the experiment, the medium was removed, and the cells were washed twice with 100 μL of pre-warmed (37° C.) assay buffer listed in Table 15. The cells were pre-incubated at 37° C. for 30 minutes in assay buffer containing the test article at appropriate concentrations (Table 16), appropriate solvents for solvent controls and the reference inhibitor for reference inhibitor wells. After the pre-incubation step solutions were removed. Uptake experiments were performed at 37° C. in 50 μL of assay buffer containing the probe substrate and the test article or solvent and controls.
(§4) After the experiment, cells were washed twice with 100 μL of appropriate cold buffer and lysed with 150 μL scintillation cocktail. Radiolabeled probe substrate transport was determined by liquid scintillation counting.
(§5) Uptake of the probe substrate in control cells provided background activity values for all data points.

OCT1 = target: T2, OCT1 (Homo sapiens, UniProt O15245); experiment: Uptake transporter inhibition assay, OCT1 (sumatriptan)
T2 sequence (O15245 1-554): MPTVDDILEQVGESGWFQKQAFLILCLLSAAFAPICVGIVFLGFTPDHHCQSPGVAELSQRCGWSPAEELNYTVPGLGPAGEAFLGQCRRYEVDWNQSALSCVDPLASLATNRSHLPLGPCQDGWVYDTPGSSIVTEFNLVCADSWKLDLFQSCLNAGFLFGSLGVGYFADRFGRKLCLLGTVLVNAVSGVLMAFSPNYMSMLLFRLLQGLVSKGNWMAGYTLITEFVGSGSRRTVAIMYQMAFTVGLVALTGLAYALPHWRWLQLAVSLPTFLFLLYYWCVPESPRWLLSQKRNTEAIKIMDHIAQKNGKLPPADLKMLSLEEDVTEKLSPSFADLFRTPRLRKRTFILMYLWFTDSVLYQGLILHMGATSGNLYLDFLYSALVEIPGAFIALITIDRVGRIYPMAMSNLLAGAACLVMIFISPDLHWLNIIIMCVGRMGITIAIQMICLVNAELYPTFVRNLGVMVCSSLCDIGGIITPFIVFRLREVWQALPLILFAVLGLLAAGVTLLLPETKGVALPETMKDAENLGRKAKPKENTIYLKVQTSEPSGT
Experimental: as §1, §2, §3, §4, §5

[1] = 10.00 μM nominal, 6.60 μM NSB corrected
[2] = 100.00 μM nominal, 77.00 μM NSB corrected
[3] = 0.14 μM nominal, 0.09 μM NSB corrected, follow-up assay
[4] = 1.24 μM nominal, 0.86 μM NSB corrected, follow-up assay
[5] = 11.11 μM nominal, 7.89 μM NSB corrected, follow-up assay
[6] = 33.33 μM nominal, 24.33 μM NSB corrected, follow-up assay
[7] = 100.00 μM nominal, 100.00 μM NSB corrected, follow-up assay
[8] = […] nominal, 1.89 μM NSB corrected, follow-up assay

## Clc1ccc(C2(OCC3OCCO3)c3ccccc3C3=NCCN32)cc1 (centres unmarked) [Compound I-19]
OAT1; [1]
  Relative inhibition: 11%
  Relative transporter specific accumulation: 89.39 ± 1.16 % of control
  Transporter specific accumulation: 5,462.33 ± 30.98 cpm
OAT1; [2]
  Relative inhibition: 33%
  Relative transporter specific accumulation: 66.61 ± 1.15 % of control
  Transporter specific accumulation: 4,070.33 ± 51.74 cpm
OAT1; OAT1, HEK293 cells, tenofovir (5 μM), NIO: no inhibition observed
  Maximum % inhibition: 33%
HBSS (pH 7.4) for OAT1, OAT3, OATP1B1, OATP1B3, OCT1, OCT2 uptake inhibition assay, 37° C., 6.25 μM nominal
  Microscopy results (solubility): Soluble
HBSS (pH 7.4) for OAT1, OAT3, OATP1B1, OATP1B3, OCT1, OCT2 uptake inhibition assay, 37° C., 50.00 μM nominal
  Microscopy results (solubility): Soluble
HBSS (pH 7.4) for OAT1, OAT3, OATP1B1, OATP1B3, OCT1, OCT2 uptake inhibition assay, 37° C., 100.00 μM nominal
  Microscopy results (solubility): Soluble
HBSS (pH 7.4) uptake assay buffer
  Kinetic solubility: ≥ 100 µM
KH (pH 8.0) for MATE1, MATE2-K uptake inhibition assay, 37° C., 6.25 μM nominal
  Microscopy results (solubility): Soluble
KH (pH 8.0) for MATE1, MATE2-K uptake inhibition assay, 37° C., 50.00 μM nominal
  Microscopy results (solubility): Soluble
KH (pH 8.0) for MATE1, MATE2-K uptake inhibition assay, 37° C., 100.00 μM nominal
  Microscopy results (solubility): Soluble
KH (pH 8.0) uptake assay buffer
  Kinetic solubility: ≥ 100 µM
Transport buffer (pH 7.4) for BSEP VT inhibition assay, 37° C., 6.25 μM nominal
  Microscopy results (solubility): Soluble
Transport buffer (pH 7.4) for BSEP VT inhibition assay, 37° C., 50.00 μM nominal
  Microscopy results (solubility): Soluble
Transport buffer (pH 7.4) for BSEP VT inhibition assay, 37° C., 100.00 μM nominal
  Microscopy results (solubility): Soluble
Transport buffer with sucrose (pH 7.4) for BCRP and MDR1 VT inhibition assay, 32° C., 6.25 μM nominal
  Microscopy results (solubility): Soluble
Transport buffer with sucrose (pH 7.4) for BCRP and MDR1 VT inhibition assay, 32° C., 50.00 μM nominal
  Microscopy results (solubility): Soluble
Transport buffer with sucrose (pH 7.4) for BCRP and MDR1 VT inhibition assay, 32° C., 100.00 μM nominal
  Microscopy results (solubility): Soluble
pH 7.4
  Microscopy results (solubility): Soluble
pH 8
  Microscopy results (solubility): Soluble
Transport buffer for BSEP (pH 7.4)
  Kinetic solubility: ≥ 100 µM
Transport buffer with sucrose for BCRP and MDR1 (pH 7.4, 32° C.)
  Kinetic solubility: ≥ 100 µM
OCT1; [3]
  Relative inhibition: 16%
  Relative transporter specific accumulation: 84.03 ± 3.76 % of control
  Transporter specific accumulation: 896.33 ± 19.14 cpm
OCT1; [4]
  Relative inhibition: 39%
  Relative transporter specific accumulation: 61.16 ± 2.59 % of control
  Transporter specific accumulation: 652.33 ± 10.37 cpm
OCT1; [1]
  Relative inhibition: 71%
  Relative transporter specific accumulation: 29.35 ± 0.48 % of control
  Transporter specific accumulation: 930.00 ± 10.03 cpm
OCT1; [5]
  Relative inhibition: 73%
  Relative transporter specific accumulation: 27.13 ± 1.77 % of control
  Transporter specific accumulation: 289.33 ± 15.11 cpm
OCT1; [6]
  Relative inhibition: 86%
  Relative transporter specific accumulation: 14.47 ± 0.94 % of control
  Transporter specific accumulation: 154.33 ± 8.03 cpm
OCT1; [2]
  Relative inhibition: 92%
  Relative transporter specific accumulation: 8.17 ± 0.48 % of control
  Transporter specific accumulation: 259.00 ± 14.94 cpm
OCT1; [7]
  Relative inhibition: 92%
  Relative transporter specific accumulation: 7.84 ± 1.11 % of control
  Transporter specific accumulation: 83.67 ± 11.38 cpm
OCT1; 2-concentration assay, 100 μM (Compound A 30 μM)
  maximum inhibition of OCT1-mediated sumatriptan accumulation: 92%
OCT1; OCT1, HEK293 cells, sumatriptan (10 μM), NIO: no inhibition observed
  Maximum % inhibition: 92%
OCT1; [8]
  Relative inhibition: 55%
  Relative transporter specific accumulation: 45.47 ± 2.44 % of control
  Transporter specific accumulation: 485.00 ± 17.73 cpm
OCT1; follow-up assay
  maximum inhibition of OCT1-mediated sumatriptan accumulation: 92%
OCT1; follow-up assay, NSB-corrected concentrations for Compound I-19
  IC50: 3.32 µM
